The source of these data is ChEMBL document CHEMBL4406826, “Discovery of δ-sultone-fused pyrazoles for treating Alzheimer's disease: Design, synthesis, biological evaluation and SAR studies” (Eur J Med Chem, 2019).

Experiment [1] concerns the target Acetylcholinesterase (Electrophorus electricus) (UniProt O42275). Put plainly: Inhibition of electric eel AChE at 20 uM using acetylthiocholine iodide as substrate preincubated with enzyme for 20 mins followed by substrate addition by Ellman's method relative to control. A general note: DTNB colorimetry detects thiols as they appear.
For experiment [2], the target named is Cholinesterase (Equus caballus) (UniProt P81908). Put plainly: Inhibition of equine serum BuChE at 20 uM using butyrylthiocholine iodide as substrate preincubated with enzyme for 20 mins followed by substrate addition by Ellman's method relative to control.
The target in the next experiment is Cholinesterase (Equus caballus, UniProt P81908). Briefly: Inhibition of equine serum BuChE using butyrylthiocholine iodide as substrate preincubated with enzyme for 20 mins followed by substrate addition by Ellman's method.

Calls of active or inactive are those of the source.

The inhibition is how much of the control response was suppressed. In general, IC50 refers to the midpoint of a concentration-inhibition curve. A lower IC50 goes with higher potency.

Sequence of Acetylcholinesterase (Electrophorus electricus) (O42275 24-633 limits assumed): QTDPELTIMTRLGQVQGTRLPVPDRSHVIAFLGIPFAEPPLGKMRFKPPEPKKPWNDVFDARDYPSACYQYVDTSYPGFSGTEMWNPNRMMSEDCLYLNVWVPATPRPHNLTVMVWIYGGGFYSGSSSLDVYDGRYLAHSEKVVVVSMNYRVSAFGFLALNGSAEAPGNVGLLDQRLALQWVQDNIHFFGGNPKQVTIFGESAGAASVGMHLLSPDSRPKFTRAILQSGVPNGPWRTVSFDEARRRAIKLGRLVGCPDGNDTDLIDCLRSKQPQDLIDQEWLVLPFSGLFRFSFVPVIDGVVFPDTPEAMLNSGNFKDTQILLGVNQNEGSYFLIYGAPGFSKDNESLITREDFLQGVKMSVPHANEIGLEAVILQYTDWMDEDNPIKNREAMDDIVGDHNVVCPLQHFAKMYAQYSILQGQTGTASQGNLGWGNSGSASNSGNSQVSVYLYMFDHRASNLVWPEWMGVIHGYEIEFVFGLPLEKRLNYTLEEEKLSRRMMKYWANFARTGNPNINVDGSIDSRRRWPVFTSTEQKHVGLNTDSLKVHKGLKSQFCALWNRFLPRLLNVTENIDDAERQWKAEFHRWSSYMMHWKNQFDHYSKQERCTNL
Sequence of Cholinesterase (P81908 whole entry): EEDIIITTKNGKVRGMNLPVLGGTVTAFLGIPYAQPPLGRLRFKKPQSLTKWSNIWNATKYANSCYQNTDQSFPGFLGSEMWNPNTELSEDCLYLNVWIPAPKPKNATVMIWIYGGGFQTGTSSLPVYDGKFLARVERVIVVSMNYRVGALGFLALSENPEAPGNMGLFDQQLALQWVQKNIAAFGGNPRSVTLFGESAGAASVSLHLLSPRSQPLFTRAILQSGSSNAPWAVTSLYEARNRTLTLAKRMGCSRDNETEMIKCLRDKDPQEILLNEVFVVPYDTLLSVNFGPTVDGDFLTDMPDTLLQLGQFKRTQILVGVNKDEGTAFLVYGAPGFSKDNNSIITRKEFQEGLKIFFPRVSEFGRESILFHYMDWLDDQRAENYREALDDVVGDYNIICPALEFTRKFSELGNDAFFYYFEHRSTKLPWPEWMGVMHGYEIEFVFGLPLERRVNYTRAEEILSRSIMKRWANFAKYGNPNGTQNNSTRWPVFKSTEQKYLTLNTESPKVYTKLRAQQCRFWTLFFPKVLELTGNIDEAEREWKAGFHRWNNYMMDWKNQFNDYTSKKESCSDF
Sequence of Cholinesterase (Equus caballus) (P81908 whole entry): as above

On to `Cc1nn(-c2ccccc2)c2c1CCS(=O)(=O)O2`, for which the inhibition result in experiment [1] and in experiment [2] was “inactive” throughout.

For `Cc1nn(-c2ccccc2)c2c1C(c1cccs1)CS(=O)(=O)O2` (stereo not drawn), the inhibition result in experiment [1] is “inactive”. The compound further registered an inhibition in experiment [2] of 42%.

Consider `COc1cccc(C2CS(=O)(=O)Oc3c2c(C)nn3-c2ccccc2)c1` (stereo not drawn), for which the inhibition entry in experiment [1] was “inactive”. The same compound had an IC50 against Cholinesterase of 11 µM.

Regarding `COc1ccc(-c2nn(-c3ccccc3F)c3c2C(c2ccc(F)cc2)CS(=O)(=O)O3)cc1` (stereo not drawn), the inhibition result in experiment [1] and in experiment [2] was “inactive” each time.

`CC1(C)CC(=O)C2=C(C1)OS(=O)(=O)CC2c1ccc([N+](=O)[O-])cc1` (stereo not drawn): the inhibition entry in experiment [1] and in experiment [2] was “inactive” each time.

Regarding `Cc1ccc(-n2nc(C)c3c2OS(=O)(=O)CC3c2ccccc2)cc1` (stereo not drawn), the inhibition entry in experiment [1] and in experiment [2] was “inactive” each time.

For the compound `Cc1nn(-c2ccccc2)c2c1C(c1cc3ccccc3o1)CS(=O)(=O)O2` (stereo not drawn), the inhibition entry in experiment [1] was “inactive”. The same compound had an IC50 at Cholinesterase of 2.6 µM.

For the compound `Cc1nn(-c2ccccc2)c2c1C(/C=C/c1ccc(C(C)(C)C)cc1)CS(=O)(=O)O2` (stereo not drawn), the inhibition in experiment [1] amounted to 11%. For the same compound, in experiment [2], the inhibition entry is “inactive”.

On to `COc1ccc(-c2nn(-c3ccccc3Cl)c3c2C(c2ccc(Br)c(C)c2)CS(=O)(=O)O3)cc1` (stereo not drawn), for which, in experiment [1], the inhibition result was “inactive”. This compound gave an inhibition in experiment [2] of 35%.

Take `CC(=O)c1cccc(C2CS(=O)(=O)Oc3c2c(C)nn3-c2ccccc2)c1` (stereo not drawn): in experiment [1], the inhibition result was “inactive”. The inhibition in experiment [2] worked out at 24%.

Take `Cc1nn(-c2cccc(F)c2)c2c1C(c1cccc(F)c1)CS(=O)(=O)O2` (stereo not drawn): the inhibition result in experiment [1] and in experiment [2] was “inactive” each time.

For the compound `Cc1cc(C2CS(=O)(=O)Oc3c2c(C)nn3-c2cccc(Cl)c2)ccc1Br` (stereo not drawn), the inhibition result in experiment [1] and in experiment [2] was “inactive” throughout.

`Cc1nn(-c2cccc(F)c2)c2c1C(c1ccc(F)cc1)CS(=O)(=O)O2` (stereo not drawn): the inhibition result in experiment [1] and in experiment [2] was “inactive” in each case.

As to `COc1ccc(-n2nc(C)c3c2OS(=O)(=O)CC3c2ccc(Br)c(C)c2)cc1` (stereo not drawn), the inhibition result in experiment [1] and in experiment [2] was “inactive” each time.

`O=C1CCC2=C1C(c1ccc([N+](=O)[O-])cc1)CS(=O)(=O)O2` (stereo not drawn): the inhibition result in experiment [1] and in experiment [2] was “inactive” each time.

Compound `Cc1cccc(/C=C/C2CS(=O)(=O)Oc3c2c(C)nn3-c2ccccc2)c1` (stereo not drawn) displayed an inhibition in experiment [1] of 13%. It took 10.1 µM to reach half-maximal inhibition against Cholinesterase (IC50).

`O=C1CCCC2=C1C(c1ccc([N+](=O)[O-])cc1)CS(=O)(=O)O2` (stereo not drawn): the inhibition result in experiment [1] was “inactive”. This compound also yielded an inhibition in experiment [2] of 25%.

For `Cc1nn(-c2ccccc2)c2c1C(c1cccc(C3CS(=O)(=O)Oc4c3c(C)nn4-c3ccccc3)c1)CS(=O)(=O)O2` (stereo not drawn), the inhibition result in experiment [1] and in experiment [2] was “inactive” throughout.

With `Cc1ccc(C2CS(=O)(=O)Oc3c2c(C)nn3-c2ccccc2)cc1Br` (stereo not drawn), the inhibition entry in experiment [1] is “inactive”. Also, inhibition against Cholinesterase was half-maximal at 18.3 µM (IC50).

Regarding `N#Cc1ccc(C2CS(=O)(=O)Oc3c2c(C2CC2)nn3-c2ccccc2Cl)cc1` (stereo not drawn), the inhibition entry in experiment [1] is “inactive”. Also, in experiment [2], the inhibition amounted to 7%.

For the compound `COc1ccc(C2CS(=O)(=O)Oc3c2c(C)nn3-c2ccccc2)cc1` (stereo not drawn), the inhibition entry in experiment [1] is “inactive”. Also, 9.35 µM corresponded to half-maximal inhibition against Cholinesterase (IC50).

As to `Cc1nn(-c2ccccc2)c2c1C(/C=C/c1ccc(Br)cc1)CS(=O)(=O)O2` (stereo not drawn), the inhibition entry in experiment [1] and in experiment [2] was “inactive” in each case.

`Cc1nn(-c2ccccc2)c2c1C(c1ccc(C#N)cc1)CS(=O)(=O)O2` (stereo not drawn): the inhibition entry in experiment [1] was “inactive”. Further, the inhibition in experiment [2] is 15%.

On to `Cc1nn(-c2cccc(Cl)c2)c2c1C(c1ccc(F)cc1)CS(=O)(=O)O2` (stereo not drawn), for which the inhibition result in experiment [1] and in experiment [2] was “inactive” throughout.

For `COc1cccc(C2CS(=O)(=O)Oc3c2c(C2CC2)nn3-c2cccc(F)c2)c1` (stereo not drawn), the inhibition result in experiment [1] was “inactive”. Moreover, the IC50 against Cholinesterase is 14.3 µM.

For the compound `Cc1nn(-c2ccccc2)c2c1C(c1cccc(C(F)(F)F)c1)CS(=O)(=O)O2` (stereo not drawn), the inhibition entry in experiment [1] was “inactive”. The compound further gave an IC50 against Cholinesterase of 16.4 µM.

On to `Cc1ccc(-n2nc(C)c3c2OS(=O)(=O)CC3c2ccccc2)cc1C` (stereo not drawn), for which the inhibition entry in experiment [1] and in experiment [2] was “inactive” in each case.

Consider `Cc1nn(-c2ccccc2)c2c1C(c1cnn(-c3ccccc3)c1)CS(=O)(=O)O2` (stereo not drawn), for which the inhibition entry in experiment [1] is “inactive”. Further, in experiment [2], the inhibition was found to be 14%.

Take `N#Cc1ccc(C2CS(=O)(=O)Oc3c2c(C2CC2)nn3-c2cccc(Cl)c2)cc1` (stereo not drawn): the inhibition entry in experiment [1] and in experiment [2] was “inactive” throughout.

`Cc1nn(-c2ccccc2)c2c1C(/C=C/c1ccc(C(F)(F)F)cc1)CS(=O)(=O)O2` (stereo not drawn) displayed an inhibition in experiment [1] of 19%. Also, the inhibition result in experiment [2] is “inactive”.

Consider `Cc1nn(-c2ccc(Cl)cc2)c2c1C(c1ccc(F)cc1)CS(=O)(=O)O2` (stereo not drawn), for which the inhibition result in experiment [1] and in experiment [2] was “inactive” throughout.

Consider `Cc1nn(-c2ccccc2)c2c1C(c1ccsc1)CS(=O)(=O)O2` (stereo not drawn), for which the inhibition result in experiment [1] was “inactive”. The compound also gave an IC50 on Cholinesterase of 10.1 µM.

Regarding `Cc1nn(-c2ccc(Cl)cc2)c2c1C(c1cccc(F)c1)CS(=O)(=O)O2` (stereo not drawn), the inhibition entry in experiment [1] and in experiment [2] was “inactive” each time.

For the compound `COc1ccc(-c2nn(-c3ccc(Cl)cc3)c3c2C(c2ccc(C#N)cc2)CS(=O)(=O)O3)cc1` (stereo not drawn), the inhibition result in experiment [1] is “inactive”. The IC50 on Cholinesterase was found to be 21 µM.

For the compound `COc1ccc(-c2nn(-c3ccc(Cl)cc3)c3c2C(c2cccc(OC)c2)CS(=O)(=O)O3)cc1` (stereo not drawn), the inhibition result in experiment [1] was “inactive”. Further, in experiment [2], the inhibition is 42%.

Take `Cc1nn(-c2ccccc2)c2c1C(c1ccc([N+](=O)[O-])cc1)CS(=O)(=O)O2` (stereo not drawn): the inhibition entry in experiment [1] and in experiment [2] was “inactive” in each case.

Turning to `Cc1nn(-c2ccc(Br)cc2)c2c1C(c1ccccc1)CS(=O)(=O)O2` (stereo not drawn), the inhibition result in experiment [1] and in experiment [2] was “inactive” in each case.

Take `Cc1cc(C2CS(=O)(=O)Oc3c2c(C)nn3-c2ccc(Cl)cc2)ccc1Br` (stereo not drawn): the inhibition entry in experiment [1] is “inactive”. The compound also showed an inhibition in experiment [2] of 34%.

Take `Cc1nn(-c2ccccc2)c2c1C(c1ccc3ccccc3c1)CS(=O)(=O)O2` (stereo not drawn): the inhibition result in experiment [1] and in experiment [2] was “inactive” each time.

`Cc1nn(-c2ccccc2)c2c1C(c1cccc([N+](=O)[O-])c1)CS(=O)(=O)O2` (stereo not drawn): the inhibition entry in experiment [1] was “inactive”. Also, the inhibition in experiment [2] is 23%.

Consider `Cc1cccc(-n2nc(C)c3c2OS(=O)(=O)CC3c2ccccc2)c1` (stereo not drawn), for which the inhibition entry in experiment [1] and in experiment [2] was “inactive” each time.

`Cc1nn(-c2ccccc2)c2c1C(c1ccc(F)cc1)CS(=O)(=O)O2` (stereo not drawn): the inhibition result in experiment [1] is “inactive”. For the same compound, the inhibition in experiment [2] turned out to be 37%.

For the compound `O=S1(=O)CC(c2cccc(C(F)(F)F)c2)c2c(C3CC3)nn(-c3ccccc3Cl)c2O1` (stereo not drawn), the inhibition result in experiment [1] and in experiment [2] was “inactive” in each case.

`Cc1nn(-c2cccc(Cl)c2)c2c1C(c1cccc(F)c1)CS(=O)(=O)O2` (stereo not drawn): the inhibition result in experiment [1] and in experiment [2] was “inactive” each time.

In the case of `Cc1cc(C)cc(C2CS(=O)(=O)Oc3c2c(C)nn3-c2ccccc2)c1` (stereo not drawn), the inhibition entry in experiment [1] and in experiment [2] was “inactive” throughout.

For `Cc1nn(-c2ccccc2)c2c1C(c1cc3ccccc3s1)CS(=O)(=O)O2` (stereo not drawn), the inhibition in experiment [1] stood at 14%; in experiment [2], 33%.

Turning to `Cc1nn(-c2ccc(F)cc2)c2c1C(c1ccccc1)CS(=O)(=O)O2` (stereo not drawn), the inhibition result in experiment [1] and in experiment [2] was “inactive” each time.

In turn, `Cc1nn(-c2ccccc2)c2c1C(c1ccc(-c3ccccc3)cc1)CS(=O)(=O)O2` (stereo not drawn) gave an inhibition in experiment [1] of 12%. Besides, in experiment [2], the inhibition entry was “inactive”.

Consider `COc1ccc(-c2nn(-c3ccc(Cl)cc3)c3c2C(c2ccc(F)cc2)CS(=O)(=O)O3)cc1` (stereo not drawn), for which the inhibition result in experiment [1] was “inactive”. This compound returned an inhibition in experiment [2] of 7%.

As to `COc1cccc(C2CS(=O)(=O)Oc3c2c(C)nn3-c2cccc(Cl)c2)c1` (stereo not drawn), the inhibition result in experiment [1] and in experiment [2] was “inactive” throughout.

Regarding `Cc1cc(C2CS(=O)(=O)Oc3c2c(C2CC2)nn3-c2cccc(Cl)c2)ccc1Br` (stereo not drawn), the inhibition result in experiment [1] was “inactive”. The compound also gave an inhibition in experiment [2] of 34%.

Turning to `CCOC(=O)c1ccc(C2CS(=O)(=O)Oc3c2c(C)nn3-c2ccccc2)cc1` (stereo not drawn), the inhibition result in experiment [1] and in experiment [2] was “inactive” throughout.

For the compound `COc1ccc(-c2nn(-c3ccccc3Cl)c3c2C(c2ccc(F)cc2)CS(=O)(=O)O3)cc1` (stereo not drawn), the inhibition entry in experiment [1] and in experiment [2] was “inactive” in each case.

In the case of `COc1ccccc1C1CS(=O)(=O)Oc2c1c(C)nn2-c1ccccc1` (stereo not drawn), in experiment [1], the inhibition result is “inactive”. This compound showed an inhibition in experiment [2] of 31%.

With `CC(=O)C1=C(C)OS(=O)(=O)CC1c1ccc([N+](=O)[O-])cc1` (stereo not drawn), the inhibition result in experiment [1] and in experiment [2] was “inactive” in each case.

As for `COc1ccc(-n2nc(C)c3c2OS(=O)(=O)CC3c2ccc(F)cc2)cc1` (stereo not drawn), in experiment [1], the inhibition result was “inactive”. The inhibition in experiment [2] came out at 15%.

On to `CC(C)C(=O)C1=C(C(C)C)OS(=O)(=O)CC1c1ccc([N+](=O)[O-])cc1` (stereo not drawn), for which the inhibition entry in experiment [1] and in experiment [2] was “inactive” throughout.

On to `Cc1nn(-c2ccccc2)c2c1C(c1cccc3c1sc1ccccc13)CS(=O)(=O)O2` (stereo not drawn), for which the inhibition entry in experiment [1] and in experiment [2] was “inactive” each time.

As to `Cc1ccc(C2CS(=O)(=O)Oc3c2c(C)nn3-c2ccccc2)cc1` (stereo not drawn), the inhibition result in experiment [1] and in experiment [2] was “inactive” each time.
